This is an account of results in patent US20240190890A1, “MK2 INHIBITORS AND USES THEREOF” (Bristol-Myers Squibb Company, priority 2022, published 2024).

Sequence of p38a activated, mitogen-activated protein kinase-activated protein kinase 2 (MAPKAP-K2 or MK2) enzyme (P49137 whole entry): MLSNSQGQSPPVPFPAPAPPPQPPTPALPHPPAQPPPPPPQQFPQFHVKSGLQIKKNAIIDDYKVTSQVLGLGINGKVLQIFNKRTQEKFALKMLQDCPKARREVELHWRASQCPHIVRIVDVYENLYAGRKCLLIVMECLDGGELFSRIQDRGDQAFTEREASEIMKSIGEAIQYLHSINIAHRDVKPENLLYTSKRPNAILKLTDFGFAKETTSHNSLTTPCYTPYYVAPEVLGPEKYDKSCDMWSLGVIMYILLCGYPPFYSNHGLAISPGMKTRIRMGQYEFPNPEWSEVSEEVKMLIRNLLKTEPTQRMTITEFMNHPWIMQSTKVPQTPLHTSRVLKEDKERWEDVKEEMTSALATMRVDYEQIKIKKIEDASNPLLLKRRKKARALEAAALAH

For this assay, the target named is p38a activated, mitogen-activated protein kinase-activated protein kinase 2 (MAPKAP-K2 or MK2) enzyme (Homo sapiens (Human), UniProt P49137). Description: MK2 Omnia continuous-read kinase assay for compound potency. Format: biochemical. The settings on record: [MK-2]=0.4 nM, [ATP]=10 μM, [ST3-Sox]=10 μM; room temperature. The procedure, abridged:
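Continuous Sox-peptide fluorescence read (ex360/em485) every 71 s over 2 h at room temperature. Reactions: 10 μM each of ATP (at apparent Km) and S/T3-Sox, 0.4 nM p38a-activated MK2, pH 7.5 Tris/MgCl2 buffer. Initial rates yield % inhibition and IC50; single-exponential kobs values yield apparent kinact/KI.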
Consider `C=Cc1cc(-c2ccc3c(ccc4sc5c(c43)NC[C@@H](C)NC5=O)n2)cc(N2CC(F)(F)C2)n1` [Example I-184, (R)-3-(2-(3,3-difluoroazetidin-1-yl)-6-vinylpyridin-4-yl)-10-methyl-9,10,11,12-tetrahydro-8H-[1,4]diazepino[5′,6′:4,5]thieno[3,2-f]quinolin-8-one], for which the IC50 stood at 175 nM.

In the case of `C=Cc1cc(-c2ccc3c(ccc4sc5c(c43)NC[C@@H](C)NC5=O)n2)cc(CN2C[C@@H](C)O[C@@H](C)C2)n1` [Example I-185, (R)-3-(2-(((2S,6R)-2,6-dimethylmorpholino)methyl)-6-vinylpyridin-4-yl)-10-methyl-9,10,11,12-tetrahydro-8H-[1,4]diazepino[5′,6′:4,5]thieno[3,2-f]quinolin-8-one], the IC50 turned out to be 7 nM.

In the case of `C#Cc1cc(-c2ccc3c(ccc4sc5c(c43)NC[C@@H](C)NC5=O)n2)cc(CN2C[C@@H](C)O[C@@H](C)C2)n1` [Example I-186, (R)-3-(2-(((2S,6R)-2,6-dimethylmorpholino)methyl)-6-ethynylpyridin-4-yl)-10-methyl-9,10,11,12-tetrahydro-8H-[1,4]diazepino[5′,6′:4,5]thieno[3,2-f]quinolin-8-one], the IC50 turned out to be 26 nM.

For `C#Cc1cc(-c2ccc3c(ccc4sc5c(c43)NC[C@@H](C)NC5=O)n2)cc(CN2C[C@@H](C)O[C@H](C)C2)n1` [Example I-188, (R)-3-(2-(((2R,6R)-2,6-dimethylmorpholino)methyl)-6-ethynylpyridin-4-yl)-10-methyl-9,10,11,12-tetrahydro-8H-[1,4]diazepino[5′,6′:4,5]thieno[3,2-f]quinolin-8-one], the IC50 was 25 nM.

In the case of `C=Cc1cc(-c2ccc3c(ccc4sc5c(c43)NC[C@@H](C)NC5=O)n2)cc(CN2CCC(OC(F)(F)F)CC2)n1` [Example I-189, (R)-10-methyl-3-(2-((4-(trifluoromethoxy)piperidin-1-yl)methyl)-6-vinylpyridin-4-yl)-9,10,11,12-tetrahydro-8H-[1,4]diazepino[5′,6′:4,5]thieno[3,2-f]quinolin-8-one], the IC50 is 206 nM.

Consider `C#Cc1cc(-c2ccc3c(ccc4sc5c(c43)NC[C@@H](C)NC5=O)n2)cc(CN2CCC(OC(F)(F)F)CC2)n1` [Example I-190, (R)-3-(2-ethynyl-6-((4-(trifluoromethoxy)piperidin-1-yl)methyl)pyridin-4-yl)-10-methyl-9,10,11,12-tetrahydro-8H-[1,4]diazepino[5′,6′:4,5]thieno[3,2-f]quinolin-8-one], for which the IC50 was 402 nM.

With `C=Cc1nc2c(c(-c3ccc4c(ccc5sc6c(c54)NC[C@@H](C)NC6=O)n3)n1)CN(C)CC2` [Example I-191, (R)-10-methyl-3-(6-methyl-2-vinyl-5,6,7,8-tetrahydropyrido[4,3-d]pyrimidin-4-yl)-9,10,11,12-tetrahydro-8H-[1,4]diazepino[5′,6′:4,5]thieno[3,2-f]quinolin-8-one], the IC50 came out at 289 nM.

As for `C[C@@H]1CNc2c(sc3ccc4nc(-c5nc(Cl)nc6c5CN(C)CC6)ccc4c23)C(=O)N1` [Example I-192, (R)-3-(2-chloro-6-methyl-5,6,7,8-tetrahydropyrido[4,3-d]pyrimidin-4-yl)-10-methyl-9,10,11,12-tetrahydro-8H-[1,4]diazepino[5′,6′:4,5]thieno[3,2-f]quinolin-8-one], the IC50 is 257 nM.

In the case of `C#Cc1nc2c(c(-c3ccc4c(ccc5sc6c(c54)NC[C@@H](C)NC6=O)n3)n1)CN(C)CC2` [Example I-193, (R)-3-(2-ethynyl-6-methyl-5,6,7,8-tetrahydropyrido[4,3-d]pyrimidin-4-yl)-10-methyl-9,10,11,12-tetrahydro-8H-[1,4]diazepino[5′,6′:4,5]thieno[3,2-f]quinolin-8-one], the IC50 is 526 nM.

With `C=Cc1cc(-c2ccc3c(ccc4sc5c(c43)NC[C@@H](C)NC5=O)n2)c(C)c(C)n1` [Example I-194, (R)-3-(2,3-dimethyl-6-vinylpyridin-4-yl)-10-methyl-9,10,11,12-tetrahydro-8H-[1,4]diazepino[5′,6′:4,5]thieno[3,2-f]quinolin-8-one], the IC50 worked out at 5 nM.

In the case of `C=Cc1cc(-c2ccc3c(ccc4sc5c(c43)NC[C@@H](C)NC5=O)n2)c(CC)cn1` [Example I-195, (R)-3-(5-ethyl-2-vinylpyridin-4-yl)-10-methyl-9,10,11,12-tetrahydro-8H-[1,4]diazepino[5′,6′:4,5]thieno[3,2-f]quinolin-8-one], the IC50 worked out at 13 nM.

Consider `C=Cc1cc(-c2ccc3c(ccc4sc5c(c43)NC[C@@H](C)NC5=O)n2)c(C2CC2)cn1` [Example I-196, (R)-3-(5-cyclopropyl-2-vinylpyridin-4-yl)-10-methyl-9,10,11,12-tetrahydro-8H-[1,4]diazepino[5′,6′:4,5]thieno[3,2-f]quinolin-8-one], for which the IC50 came to 5 nM.

Regarding `C=Cc1cc(-c2ccc3c(ccc4sc5c(c43)NC[C@@H](C)NC5=O)n2)c(C)c(CN2CCOCC2)n1` [Example I-197, (R)-10-methyl-3-(3-methyl-2-(morpholinomethyl)-6-vinylpyridin-4-yl)-9,10,11,12-tetrahydro-8H-[1,4]diazepino[5′,6′:4,5]thieno[3,2-f]quinolin-8-one], the IC50 worked out at 5 nM.

Turning to `C=Cc1cc(-c2ccc3c(ccc4sc5c(c43)NC[C@@H](C)NC5=O)n2)c(F)c(CN2CCOCC2)n1` [Example I-198, (R)-3-(3-fluoro-2-(morpholinomethyl)-6-vinylpyridin-4-yl)-10-methyl-9,10,11,12-tetrahydro-8H-[1,4]diazepino[5′,6′:4,5]thieno[3,2-f]quinolin-8-one], the IC50 came to 106 nM.

For the compound `C[C@@H]1CNc2c(sc3ccc4nc(-c5ccnc(/C=C/C(F)(F)F)c5)ccc4c23)C(=O)N1` [Example I-199, (R,E)-10-methyl-3-(2-(3,3,3-trifluoroprop-1-en-1-yl)pyridin-4-yl)-9,10,11,12-tetrahydro-8H-[1,4]diazepino[5′,6′:4,5]thieno[3,2-f]quinolin-8-one], the IC50 came out at 636 nM.

For the compound `COc1nnc(/C=C/C(F)(F)F)cc1-c1ccc2c(ccc3sc4c(c32)NC[C@@H](C)NC4=O)n1` [Example I-200, (R,E)-3-(3-methoxy-6-(3,3,3-trifluoroprop-1-en-1-yl)pyridazin-4-yl)-10-methyl-9,10,11,12-tetrahydro-8H-[1,4]diazepino[5′,6′:4,5]thieno[3,2-f]quinolin-8-one], the IC50 was 1000 nM.

Regarding `C=Cc1cc(-c2ccc3c(ccc4sc5c(c43)NC[C@@H](C)NC5=O)n2)cc(N2CCC(C(F)(F)F)CC2)n1` [Example I-202, (R)-10-methyl-3-(2-(4-(trifluoromethyl)piperidin-1-yl)-6-vinylpyridin-4-yl)-9,10,11,12-tetrahydro-8H-[1,4]diazepino[5′,6′:4,5]thieno[3,2-f]quinolin-8-one], the IC50 is 674 nM.

As for `C=Cc1nncn1-c1ccc2c(ccc3sc4c(c32)NC[C@@H](C)NC4=O)n1` [Example I-203, (R)-10-methyl-3-(3-vinyl-4H-1,2,4-triazol-4-yl)-9,10,11,12-tetrahydro-8H-[1,4]diazepino[5′,6′:4,5]thieno[3,2-f]quinolin-8-one], the IC50 was 9 nM.

`C#Cc1nncn1-c1ccc2c(ccc3sc4c(c32)NC[C@@H](C)NC4=O)n1` [Example I-204, (R)-3-(3-ethynyl-4H-1,2,4-triazol-4-yl)-10-methyl-9,10,11,12-tetrahydro-8H-[1,4]diazepino[5′,6′:4,5]thieno[3,2-f]quinolin-8-one]: the IC50 was found to be 555 nM.

In the case of `C[C@@H]1CNc2c(sc3ccc4nc(-n5ccnc5Cl)ccc4c23)C(=O)N1` [Example I-205, (R)-3-(2-chloro-1H-imidazol-1-yl)-10-methyl-9,10,11,12-tetrahydro-8H-[1,4]diazepino[5′,6′:4,5]thieno[3,2-f]quinolin-8-one], the IC50 is 97 nM.

In the case of `C=Cc1nc(C)cn1-c1ccc2c(ccc3sc4c(c32)NC[C@@H](C)NC4=O)n1` [Example I-206, (R)-10-methyl-3-(4-methyl-2-vinyl-1H-imidazol-1-yl)-9,10,11,12-tetrahydro-8H-[1,4]diazepino[5′,6′:4,5]thieno[3,2-f]quinolin-8-one], the IC50 amounted to 4 nM.

For the compound `C=Cc1ncn(-c2ccc3c(ccc4sc5c(c43)NC[C@@H](C)NC5=O)n2)n1` [Example I-207, (R)-10-methyl-3-(3-vinyl-1H-1,2,4-triazol-1-yl)-9,10,11,12-tetrahydro-8H-[1,4]diazepino[5′,6′:4,5]thieno[3,2-f]quinolin-8-one], the IC50 was found to be 26 nM.

In the case of `C=Cc1nc(-c2ccc3c(ccc4sc5c(c43)NC[C@@H](C)NC5=O)n2)nn1C` [Example I-208, (R)-10-methyl-3-(1-methyl-5-vinyl-1H-1,2,4-triazol-3-yl)-9,10,11,12-tetrahydro-8H-[1,4]diazepino[5′,6′:4,5]thieno[3,2-f]quinolin-8-one], the IC50 was 285 nM.

As for `C=Cc1ncc(-c2ccc3c(ccc4sc5c(c43)NC[C@@H](C)NC5=O)n2)s1` [Example I-209, (R)-10-methyl-3-(2-vinylthiazol-5-yl)-9,10,11,12-tetrahydro-8H-[1,4]diazepino[5′,6′:4,5]thieno[3,2-f]quinolin-8-one], the IC50 was found to be 15 nM.

On to `C[C@@H]1CNc2c(sc3ccc4nc(-n5cnc(Cl)n5)ccc4c23)C(=O)N1` [Example I-210, (R)-3-(3-chloro-1H-1,2,4-triazol-1-yl)-10-methyl-9,10,11,12-tetrahydro-8H-[1,4]diazepino[5′,6′:4,5]thieno[3,2-f]quinolin-8-one], for which the IC50 came to 91 nM.

As for `C=Cc1cc(-c2ccc3c(ccc4sc5c(c43)NC[C@@H](C)NC5=O)n2)c(CN2CC(F)(F)C2)cn1` [Example I-211, (R)-3-(5-((3,3-difluoroazetidin-1-yl)methyl)-2-vinylpyridin-4-yl)-10-methyl-9,10,11,12-tetrahydro-8H-[1,4]diazepino[5′,6′:4,5]thieno[3,2-f]quinolin-8-one], the IC50 turned out to be 275 nM.
